According to US7537787B2, “Method for modulating glutamate and/or aspartate release in a central nervous system locus” (Indiana University Research and Technology Corporation, priority 1996, dated 2009):

Assays:
[1] = test system: rat hippocampal slices (glutamate release); assay: TRH inhibition of [K+]-stimulated glutamate release from superfused hippocampal slices in vitro; type: cell-based; details: for glutamate at 10 min. post stimulation: control 4.37±1.29; for peak 50 mM [K+]-stimulated glutamate release: control 48.05±8.59
Text: TRH INHIBITION OF [K^+]-STIMULATED GLUTAMATE RELEASE FROM HIPPOCAMPAL SLICES IN VITRO. Enhanced excitatory amino acid release is suspected in pathways associated with seizures and excitotoxicity. In this regard, superfused hippocampal slices were used to investigate the hypothesis that TRH could inhibit glutamate release in vitro. Rat hippocampi were removed and sliced transversely (500 μm) under low magnification. Slices were weighed, washed in cold saline, transferred to individual tissue chambers floated in a 37° C. water bath and were equilibrated in oxygenated (95% O2/5% CO2), (37° C.) Kreb's buffer (KRB) for 120 min. (0.5 ml/min.). Slice chambers were then superfused 10 min. with KRB (control), or KRB containing 10 μM, 1 μM, or 0.1 μM TRH respectively, prior to 5 min. stimulation with modified KRB (50 mM [K^+]±TRH). Fractions (1 min.) were collected during the 5 min. stimulation and for an additional 10 min. (0.5 ml/min.) thereafter, and analyzed for glutamate by HPLC.

[2] = test system: Gαq/11 G proteins (TRH receptor); details: sustained TRH exposure (16 hr.) to its receptor; cited from earlier work

Structure (SMILES): NC(=O)[C@@H]1CCCN1C(=O)[C@H](Cc1cnc[nH]1)NC(=O)[C@@H]1CCC(=O)N1 [TRH, Thyrotropin-releasing hormone]
- glutamate at 10 min. post stimulation ([1]; 0.1 μM TRH): 1.54±0.43 μM/g/fraction
- peak 50 mM [K+]-stimulated glutamate release ([1]; 0.1 μM TRH): 1.38±0.28 μM/g/fraction
- glutamate at 10 min. post stimulation ([1]; 1 μM TRH): 1.11±0.26 μM/g/fraction
- peak 50 mM [K+]-stimulated glutamate release ([1]; 1 μM TRH): 1.54±0.33 μM/g/fraction
- glutamate at 10 min. post stimulation ([1]; 10 μM TRH): 1.35±0.48 μM/g/fraction
- peak 50 mM [K+]-stimulated glutamate release ([1]; 10 μM TRH): 2.35±0.50 μM/g/fraction
- glutamate release by 50 mM [K+]-stimulation given 15 min. later ([1]; 5 min. perfusion with KRB+10 μM TRH, p<0.05, FIG. 6): significantly (p<0.05) blocked
- reduction of Gαq/11 G proteins [2]: 20-70%
